# Measurements published in ChEMBL document CHEMBL1240372, “Murine model of a disseminated infection by the novel fungus Fonsecaea monophora and successful treatment with posaconazole” (Antimicrob Agents Chemother, 2010).
# Activity calls are given as the source filed them. The rule behind the calls is not given here.
# How the values were obtained:
# Fonsecaea monophora [1] = test: Antifungal activity against Fonsecaea monophora CBS 269.37; assay type: functional
# Fonsecaea monophora [2] = test: Antifungal activity against 2 x 10^5 CFU Fonsecaea monophora CBS 117236 infected in […] OF1 mouse assessed as reduction in fungal load in kidney at 1.5 mg/kg, ip qd administered 1 day after infection for 7 days; assay type: functional, organism-based; design: dose 1.5 mg/kg
# Fonsecaea monophora [3] = test: Antifungal activity against 1 x 10^6 CFU Fonsecaea monophora CBS 269.37 infected in […] OF1 mouse assessed as reduction in fungal load in kidney at 1.5 mg/kg, ip qd administered 1 day after infection for 7 days; assay type: functional, organism-based; design: dose 1.5 mg/kg
# Fonsecaea monophora [4] = test: Antifungal activity against 2 x 10^5 CFU Fonsecaea monophora CBS 117236 infected in […] OF1 mouse assessed as reduction in fungal load in lung at 1.5 mg/kg, ip qd administered 1 day after infection for 7 days; assay type: functional, organism-based; design: dose 1.5 mg/kg
# Fonsecaea monophora [5] = test: Antifungal activity against Fonsecaea monophora CBS 117236; assay type: functional
# [6] = Drug level in 1 x 10^6 CFU Fonsecaea monophora CBS 269.37 infected OF1 mouse serum at 1.5 mg/kg, ip qd administered 1 day after infection measured on day 6 after 4 hrs of last treatment; assay type: ADME, organism-based; design: dose 1.5 mg/kg, route intraperitoneal; settings: read-out: Drug uptake
# Fonsecaea monophora [7] = test: Antifungal activity against 2 x 10^5 CFU Fonsecaea monophora CBS 117236 infected in […] OF1 mouse assessed as reduction in fungal load in spleen at 1.5 mg/kg, ip qd administered 1 day after infection for 7 days; assay type: functional, organism-based; design: dose 1.5 mg/kg
# Fonsecaea monophora [8] = test: Antifungal activity against 1 x 10^6 CFU Fonsecaea monophora CBS 269.37 infected in OF1 mouse assessed as increase in mouse survival at 1.5 mg/kg, ip qd administered 1 day after infection for 7 days; assay type: functional, organism-based; design: dose 1.5 mg/kg
# Fonsecaea monophora [9] = test: Antifungal activity against 1 x 10^6 CFU Fonsecaea monophora CBS 269.37 infected in […] OF1 mouse assessed as reduction in fungal load in spleen at 1.5 mg/kg, ip qd administered 1 day after infection for 7 days; assay type: functional, organism-based; design: dose 1.5 mg/kg
# Fonsecaea monophora [10] = test: Antifungal activity against 1 x 10^6 CFU Fonsecaea monophora CBS 269.37 infected in […] OF1 mouse assessed as reduction in fungal load in lung at 1.5 mg/kg, ip qd administered 1 day after infection for 7 days; assay type: functional, organism-based; design: dose 1.5 mg/kg
# Fonsecaea monophora [11] = test: Antifungal activity against 1 x 10^6 CFU Fonsecaea monophora CBS 269.37 infected in po dosed OF1 mouse assessed as reduction in fungal load in spleen at 25 mg/kg, po bid administered 1 day after infection for 7 days; assay type: functional, organism-based; design: dose 25 mg/kg
# [12] = Drug level in 1 x 10^6 CFU Fonsecaea monophora CBS 269.37 infected OF1 mouse brain at 50 mg/kg, po bid administered 1 day after infection measured on day 6 after 4 hrs of last treatment; assay type: ADME, organism-based; design: dose 50 mg/kg, route oral; settings: read-out: Drug uptake
# Fonsecaea monophora [13] = test: Antifungal activity against 2 x 10^5 CFU Fonsecaea monophora CBS 117236 infected in OF1 mouse assessed as increase in mouse survival at 25 mg/kg, po bid administered 1 day after infection for 7 days; assay type: functional, organism-based; design: dose 25 mg/kg
# Fonsecaea monophora [14] = test: Antifungal activity against 2 x 10^5 CFU Fonsecaea monophora CBS 117236 infected in po dosed OF1 mouse assessed as reduction in fungal load in kidney at 25 mg/kg, po bid administered 1 day after infection for 7 days; assay type: functional, organism-based; design: dose 25 mg/kg
# Fonsecaea monophora [15] = test: Antifungal activity against 1 x 10^6 CFU Fonsecaea monophora CBS 269.37 infected in po dosed OF1 mouse assessed as reduction in fungal load in kidney at 25 mg/kg, po bid administered 1 day after infection for 7 days; assay type: functional, organism-based; design: dose 25 mg/kg
# Fonsecaea monophora [16] = test: Antifungal activity against 2 x 10^5 CFU Fonsecaea monophora CBS 117236 infected in po dosed OF1 mouse assessed as reduction in fungal load in lung at 25 mg/kg, po bid administered 1 day after infection for 7 days; assay type: functional, organism-based; design: dose 25 mg/kg
# Fonsecaea monophora [17] = test: Antifungal activity against 1 x 10^6 CFU Fonsecaea monophora CBS 269.37 infected in OF1 mouse assessed as increase in mouse survival at 25 mg/kg, po bid administered 1 day after infection for 7 days; assay type: functional, organism-based; design: dose 25 mg/kg
# [18] = Drug level in 1 x 10^6 CFU Fonsecaea monophora CBS 269.37 infected OF1 mouse serum at 50 mg/kg, po bid administered 1 day after infection measured on day 6 after 4 hrs of last treatment; assay type: ADME, organism-based; design: dose 50 mg/kg, route oral; settings: read-out: Drug uptake
# Fonsecaea monophora [19] = test: Antifungal activity against 2 x 10^5 CFU Fonsecaea monophora CBS 117236 infected in po dosed OF1 mouse assessed as reduction in fungal load in spleen at 25 mg/kg, po bid administered 1 day after infection for 7 days; assay type: functional, organism-based; design: dose 25 mg/kg
# Fonsecaea monophora [20] = test: Antifungal activity against 1 x 10^6 CFU Fonsecaea monophora CBS 269.37 infected in po dosed OF1 mouse assessed as reduction in fungal load in lung at 25 mg/kg, po bid administered 1 day after infection for 7 days; assay type: functional, organism-based; design: dose 25 mg/kg
# Fonsecaea monophora [21] = test: Antifungal activity against 2 x 10^5 CFU Fonsecaea monophora CBS 117236 infected in po dosed OF1 mouse assessed as reduction in fungal load in spleen compound administered qd 1 day after infection for 7 days; assay type: functional, organism-based
# [22] = Drug level in 1 x 10^6 CFU Fonsecaea monophora CBS 269.37 infected OF1 mouse brain at 10 mg/kg, po qd administered 1 day after infection measured on day 6 after 4 hrs of last treatment; assay type: ADME, organism-based; design: dose 10 mg/kg, route oral; settings: read-out: Drug uptake
# [23] = Drug level in 1 x 10^6 CFU Fonsecaea monophora CBS 269.37 infected OF1 mouse brain at 40 mg/kg, po qd administered 1 day after infection measured on day 6 after 4 hrs of last treatment; assay type: ADME, organism-based; design: dose 40 mg/kg, route oral; settings: read-out: Drug uptake
# Fonsecaea monophora [24] = test: Antifungal activity against 2 x 10^5 CFU Fonsecaea monophora CBS 117236 infected in OF1 mouse assessed as increase in mouse survival at 20 mg/kg, po qd administered 1 day after infection for 7 days; assay type: functional, organism-based; design: dose 20 mg/kg
# [25] = Drug level in 1 x 10^6 CFU Fonsecaea monophora CBS 269.37 infected OF1 mouse serum at 20 mg/kg, po qd administered 1 day after infection measured on day 6 after 4 hrs of last treatment; assay type: ADME, organism-based; design: dose 20 mg/kg, route oral; settings: read-out: Drug uptake
# Fonsecaea monophora [26] = test: Antifungal activity against 1 x 10^6 CFU Fonsecaea monophora CBS 269.37 infected in po dosed OF1 mouse assessed as reduction in fungal load in kidney compound administered qd 1 day after infection for 7 days; assay type: functional, organism-based
# Fonsecaea monophora [27] = test: Antifungal activity against 2 x 10^5 CFU Fonsecaea monophora CBS 117236 infected in OF1 mouse assessed as increase in mouse survival at 10 mg/kg, po qd administered 1 day after infection for 7 days; assay type: functional, organism-based; design: dose 10 mg/kg
# Fonsecaea monophora [28] = test: Antifungal activity against 1 x 10^6 CFU Fonsecaea monophora CBS 269.37 infected in po dosed OF1 mouse assessed as reduction in fungal load in brain compound administered qd 1 day after infection for 7 days; assay type: functional, organism-based
# Fonsecaea monophora [29] = test: Antifungal activity against 1 x 10^6 CFU Fonsecaea monophora CBS 269.37 infected in OF1 mouse assessed as increase in mouse survival at 40 mg/kg, po qd administered 1 day after infection for 7 days; assay type: functional, organism-based; design: dose 40 mg/kg
# Fonsecaea monophora [30] = test: Antifungal activity against 2 x 10^5 CFU Fonsecaea monophora CBS 117236 infected in OF1 mouse assessed as increase in mouse survival at 40 mg/kg, po qd administered 1 day after infection for 7 days; assay type: functional, organism-based; design: dose 40 mg/kg
# [31] = Drug level in 1 x 10^6 CFU Fonsecaea monophora CBS 269.37 infected OF1 mouse serum at 40 mg/kg, po qd administered 1 day after infection measured on day 6 after 4 hrs of last treatment; assay type: ADME, organism-based; design: dose 40 mg/kg, route oral; settings: read-out: Drug uptake
# Fonsecaea monophora [32] = test: Antifungal activity against 1 x 10^6 CFU Fonsecaea monophora CBS 269.37 infected in po dosed OF1 mouse assessed as reduction in fungal load in spleen compound administered qd 1 day after infection for 7 days; assay type: functional, organism-based
# [33] = Drug level in 1 x 10^6 CFU Fonsecaea monophora CBS 269.37 infected OF1 mouse serum at 10 mg/kg, po qd administered 1 day after infection measured on day 6 after 4 hrs of last treatment; assay type: ADME, organism-based; design: dose 10 mg/kg, route oral; settings: read-out: Drug uptake
# Fonsecaea monophora [34] = test: Antifungal activity against 1 x 10^6 CFU Fonsecaea monophora CBS 269.37 infected in OF1 mouse assessed as increase in mouse survival at 20 mg/kg, po qd administered 1 day after infection for 7 days; assay type: functional, organism-based; design: dose 20 mg/kg
# Fonsecaea monophora [35] = test: Antifungal activity against 1 x 10^6 CFU Fonsecaea monophora CBS 269.37 infected in po dosed OF1 mouse assessed as reduction in fungal load in lung compound administered qd 1 day after infection for 7 days; assay type: functional, organism-based
# Fonsecaea monophora [36] = test: Antifungal activity against 2 x 10^5 CFU Fonsecaea monophora CBS 117236 infected in OF1 mouse assessed as increase in mouse body weight at 10 mg/kg, po qd administered 1 day after infection for 7 days; assay type: functional, organism-based; design: dose 10 mg/kg
# [37] = Drug level in 1 x 10^6 CFU Fonsecaea monophora CBS 269.37 infected OF1 mouse brain at 20 mg/kg, po qd administered 1 day after infection measured on day 6 after 4 hrs of last treatment; assay type: ADME, organism-based; design: dose 20 mg/kg, route oral; settings: read-out: Drug uptake
# Fonsecaea monophora [38] = test: Antifungal activity against 2 x 10^5 CFU Fonsecaea monophora CBS 117236 infected in po dosed OF1 mouse assessed as reduction in fungal load in kidney compound administered qd 1 day after infection for 7 days; assay type: functional, organism-based
# Fonsecaea monophora [39] = test: Antifungal activity against 2 x 10^5 CFU Fonsecaea monophora CBS 117236 infected in OF1 mouse assessed as increase in mouse body weight at 20 mg/kg, po qd administered 1 day after infection for 7 days; assay type: functional, organism-based; design: dose 20 mg/kg
# Fonsecaea monophora [40] = test: Antifungal activity against 2 x 10^5 CFU Fonsecaea monophora CBS 117236 infected in po dosed OF1 mouse assessed as reduction in fungal load in brain compound administered qd 1 day after infection for 7 days; assay type: functional, organism-based
# Fonsecaea monophora [41] = test: Antifungal activity against 2 x 10^5 CFU Fonsecaea monophora CBS 117236 infected in po dosed OF1 mouse assessed as reduction in fungal load in lung compound administered qd 1 day after infection for 7 days; assay type: functional, organism-based
structure (smiles),measurement,setting,value
C[C@@H]1[C@H](O)[C@@H](C)/C=C/C=C/C=C/C=C/C=C/C=C/C=C/[C@H](O[C@@H]2O[C@H](C)[C@@H](O)[C@H](N)[C@@H]2O)C[C@@H]2O[C@](O)(C[C@@H](O)C[C@@H](O)[C@H](O)CC[C@@H](O)C[C@@H](O)CC(=O)O[C@H]1C)C[C@H](O)[C@H]2C(=O)O [AMPHOTERICIN B],MIC,Fonsecaea monophora [1],1 µg/mL
same,Activity,Fonsecaea monophora [2],Active
same,Activity,Fonsecaea monophora [3],Active
same,Activity,Fonsecaea monophora [4],Active
same,MIC,Fonsecaea monophora [5],1 µg/mL
same,concentration at 4 h,[6],6450 ng/mL
same,Activity,Fonsecaea monophora [7],Active
same,Activity,Fonsecaea monophora [8],Active
same,Activity,Fonsecaea monophora [9],Active
same,Activity,Fonsecaea monophora [10],Active
CCC(C)n1ncn(-c2ccc(N3CCN(c4ccc(OCC5COC(Cn6cncn6)(c6ccc(Cl)cc6Cl)O5)cc4)CC3)cc2)c1=O (stereo not given) [ITRACONAZOLE],MIC,Fonsecaea monophora [1],0.5 µg/mL
same,Activity,Fonsecaea monophora [11],Active
same,concentration at 4 h,[12],6880 ng/g
same,Activity,Fonsecaea monophora [13],inactive
same,Activity,Fonsecaea monophora [14],Active
same,MIC,Fonsecaea monophora [5],0.25 µg/mL
same,Activity,Fonsecaea monophora [15],Active
same,Activity,Fonsecaea monophora [16],Active
same,Activity,Fonsecaea monophora [17],inactive
same,concentration at 4 h,[18],7320 ng/mL
same,Activity,Fonsecaea monophora [19],Active
same,Activity,Fonsecaea monophora [20],Active
CC[C@@H]([C@H](C)O)n1ncn(-c2ccc(N3CCN(c4ccc(OC[C@@H]5CO[C@@](Cn6cncn6)(c6ccc(F)cc6F)C5)cc4)CC3)cc2)c1=O [POSACONAZOLE],Activity,Fonsecaea monophora [21],Dose-dependent effect
same,MIC,Fonsecaea monophora [1],0.25 µg/mL
same,concentration at 4 h,[22],2020 ng/g
same,concentration at 4 h,[23],6730 ng/g
same,Activity,Fonsecaea monophora [24],Active
same,concentration at 4 h,[25],6350 ng/mL
same,Activity,Fonsecaea monophora [26],Dose-dependent effect
same,Activity,Fonsecaea monophora [27],Active
same,Activity,Fonsecaea monophora [28],Dose-dependent effect
same,Activity,Fonsecaea monophora [29],Active
same,Activity,Fonsecaea monophora [30],Active
same,concentration at 4 h,[31],9720 ng/mL
same,Activity,Fonsecaea monophora [32],Dose-dependent effect
same,concentration at 4 h,[33],5170 ng/mL
same,Activity,Fonsecaea monophora [34],Active
same,Activity,Fonsecaea monophora [35],Dose-dependent effect
same,MIC,Fonsecaea monophora [5],0.12 µg/mL
same,Activity,Fonsecaea monophora [36],Active
same,concentration at 4 h,[37],2840 ng/g
same,Activity,Fonsecaea monophora [38],Dose-dependent effect
same,Activity,Fonsecaea monophora [39],Active
same,Activity,Fonsecaea monophora [40],Dose-dependent effect
same,Activity,Fonsecaea monophora [41],Dose-dependent effect
